Experimental data as given in patent US20220031684A1, “PROPHYLACTIC EFFICACY OF SEROTONIN 4 RECEPTOR AGONISTS AGAINST STRESS” (THE TRUSTEES OF COLUMBIA UNIVERSITY IN THE CITY OF NEW YORK, priority 2019, published 2022).

What was measured:
[1] = Chronic corticosterone (CORT) model: body weight; type: in vivo, mice; details: male C57BL/6NTac; Flx 18 mg/kg/day in drinking water or RS-67,333 1.5 mg/kg/day in osmotic minipumps for 3 weeks prior to CORT
Experimental: This chronic CORT elevation dysregulates the hypothalamic-pituitary-adrenal axis (HPA) in a manner similar to that observed in clinical depression. The dose and duration of CORT treatment was selected based on previous studies. CORT (35 μg/ml, equivalent to about 5 mg/kg/day) dissolved in 0.45% hydroxypropyl-o-cyclodextrin (0-CD) or vehicle (VEH) (0.45% j-CD) was available ad libitum in the drinking water in opaque bottles to protect it from light. VEH- and CORT-treated water was changed every 3 days to prevent possible degradation. Contextual Fear Conditioning (CFC): A 3-shock CFC procedure was administered as previously published. Briefly, mice were placed into context A and administered 3 2-s shocks (0.75 mA) at 180 s, 240 s or 300 s following placement into context A. Mice were removed from the context 15 s following the termination of shock (at 317 s). For context retrieval, mice were placed back into context A for 300 s. Electrophysiology: Electrophysiology was conducted as previously described. Statistical Analysis: Results from data analyses are expressed as means±SEM. Alpha was set to 0.05 for all analyses. Data were analyzed using GraphPad Prism v7.0 or v8.0. For all experiments, unless otherwise noted, one- or two-way ANOVAs with repeated-measures were applied to the data as appropriate. […] Videos were scored using ANY-maze behavior tracking software (Stoelting, Wood Dale, Ill.). […]

129S6/SvEv mice [2] = assay: Forced swim test (FST) after CFC; type: in vivo
Experimental: (§1) This chronic CORT elevation dysregulates the hypothalamic-pituitary-adrenal axis (HPA) in a manner similar to that observed in clinical depression. The dose and duration of CORT treatment was selected based on previous studies. CORT (35 μg/ml, equivalent to about 5 mg/kg/day) dissolved in 0.45% hydroxypropyl-o-cyclodextrin (0-CD) or vehicle (VEH) (0.45% j-CD) was available ad libitum in the drinking water in opaque bottles to protect it from light. VEH- and CORT-treated water was changed every 3 days to prevent possible degradation. Contextual Fear Conditioning (CFC): A 3-shock CFC procedure was administered as previously published. Briefly, mice were placed into context A and administered 3 2-s shocks (0.75 mA) at 180 s, 240 s or 300 s following placement into context A. Mice were removed from the context 15 s following the termination of shock (at 317 s). For context retrieval, mice were placed back into context A for 300 s. Electrophysiology: Electrophysiology was conducted as previously described. Statistical Analysis: Results from data analyses are expressed as means±SEM. Alpha was set to 0.05 for all analyses. Data were analyzed using GraphPad Prism v7.0 or v8.0. For all experiments, unless otherwise noted, one- or two-way ANOVAs with repeated-measures were applied to the data as appropriate. Significant main effects and/or interactions were followed by Fisher's PLSD post hoc analysis or unpaired t-tests. Drugs: All drugs were prepared in physiological saline and all injections were administered intraperitoneally (i.p.) in volumes of 0.1 cc per […] body weight unless otherwise noted. Fluoxetine hydrochloride (Flx): Flx (BioTrend Chemicals AG, BG197, Zurich, Germany) was administered in the drinking water (18 mg/kg/day) for 3 weeks before the start of CORT. […] (R,S)-ketamine (K): (R,S)-ketamine (Ketaset III, Ketamine HCl injection, Fort Dodge Animal Health, Fort Dodge, Iowa) was administered in a single dose at 30 mg/kg of body weight 1 week before the start of CFC. […] PF-04995274: PF-04995274 (Sigma, Catalog No. 1331782-27-4, St. Louis, Mo.) was administered a single dose at 3 or 10 mg/kg of body weight 1 week before the start of CFC. PF-04995274 was dissolved in saline using an ultrasonic homogenizer (BioLogics, Model 3000, Manassas, Va.). Osmotic minipump implantation: ALZET osmotic minipumps (Model 2004, […], 28 days) were implanted subcutaneously under isoflurane anesthesia as previously described [S2]. Osmotic minipumps were rotated under the skin two to three times per week. Behavioral Assays: All experiments were approved by the Institutional Animal Care and Use Committee (IACUC) at the New York Psychiatric Institute (NYSPI). Elevated Plus Maze (EPM): Testing was performed as previously described [S3]. Briefly, the maze is a plus-cross-shaped apparatus consisting of four arms, two open and two enclosed by walls, linked by a central platform at a height of 50 cm from the floor. Mice were individually placed in the center of the maze facing an open arm and were allowed to explore the maze for 5 min. The time spent in and the number of entries into the open arms was used as an anxiety index. Videos were scored using ANY-maze behavior tracking software (Stoelting, Wood Dale, Ill.). Novelty-Suppressed Feeding: The NSF is a conflict test that elicits competing motivations: the drive to eat and the fear of venturing into the center of a brightly lit arena. The latency to feed is used as an index of anxiety-like behavior, because classical anxiolytic drugs decrease this measure. The NSF test was carried out during an 8 min period as previously described [S3]. Briefly, the testing apparatus consisted of a plastic box (50×50×20 cm), the floor of which was covered with approximately 2 cm of bedding. For 129S6/SvEv experiments, mice were food restricted for 12 h. For the C57BL/6N experiments, mice were food restricted for 24 h. […]

129S6/SvEv mice [3] = assay: Elevated plus maze (EPM) after CFC; type: in vivo
Experimental: as §1

[4] = FIG. 3 cohort, FIG. 3G, Fisher's PLSD
[5] = female 129S6/SvEv, 1.5 or 10 mg/kg

## CCCCN1CCC(CCC(=O)c2cc(Cl)c(N)cc2OC)CC1.Cl [RS-67,333, 1-(4-amino-5-chloro-2-methoxyphenyl)-3-[1(n-butyl)-4-piperidinyl]-1-propanone HCl]
[1]
  CORT-induced increase in body weight: attenuated
129S6/SvEv mice [2]; FIG. 2E, Fisher's LSD
  p, FST Day 1 Immobility Time (sec), RS67333 (1.5 mg/kg) vs. RS67333 (10 mg/kg): 0.3430
  p, FST Day 1 Immobility Time (sec), RS67333 (1.5 mg/kg) vs. RS67333 (30 mg/kg): 0.5994
  p, FST Day 1 Immobility Time (sec), RS67333 (10 mg/kg) vs. RS67333 (30 mg/kg): 0.1099
  p, FST Day 1 Immobility Time (sec), Saline vs. RS67333 (1.5 mg/kg): 0.3784
  p, FST Day 1 Immobility Time (sec), Saline vs. RS67333 (10 mg/kg): 0.0028
  p, FST Day 1 Immobility Time (sec), Saline vs. RS67333 (30 mg/kg): 0.8437
129S6/SvEv mice [2]; [4]
  p, FST Day 2 Immobility Time (min 3-6) (sec), RS67333 (1.5 mg/kg) vs. RS67333 (10 mg/kg): 0.0235
  p, FST Day 2 Immobility Time (min 3-6) (sec), Saline vs. RS67333 (1.5 mg/kg): 0.4916
  p, FST Day 2 Immobility Time (min 3-6) (sec), Saline vs. RS67333 (10 mg/kg): 0.1991
129S6/SvEv mice [2]; female 129S6/SvEv, 1.5 or 10 mg/kg vs saline
  immobility, FST days 1 and 2: comparable levels of immobility
129S6/SvEv mice [2]; male 129S6/SvEv, RS-67,333 1.5, 10 or 30 mg/kg vs saline
  immobility time, FST Day 2: comparable
129S6/SvEv mice [2]; male 129S6/SvEv, single injection 1 week before CFC, 10 mg/kg
  immobility, FST Day 1 vs saline: significantly less immobile
129S6/SvEv mice [3]; FIG. 2J, t-test
  p, EPM Time in Open, Saline vs. RS67333 (10 mg/kg): 0.2069
129S6/SvEv mice [3]; FIG. 2K, t-test
  p, EPM Entries into Open, Saline vs. RS67333 (10 mg/kg): 0.3584
129S6/SvEv mice [3]; [5]
  entries into the open arms of the EPM: comparable
  time spent in the open arms of the EPM: comparable
129S6/SvEv mice [3]; male 129S6/SvEv, 10 mg/kg
  entries into the open arms of the EPM vs saline: neither in the open arms nor entries into the open arms of the maze was significantly different
  time in the open arms of the EPM vs saline: neither in the open arms nor entries into the open arms of the maze was significantly different
